Measured values: PubChem BioAssay (NCI)
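Assay format: 96-well plates, 48-hour exposure. Definition used: TGI = concentration required for complete inhibition of growth.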

Assays:
Test in all cases: NCI anticancer screen, dose series, 48 h
RPMI-8226 leukemia = system: RPMI-8226 leukemia
MDA-MB-231 breast = system: MDA-MB-231 breast
TK-10 renal = system: TK-10 renal
IGROV1 ovarian = system: IGROV1 ovarian
SK-MEL-2 melanoma = system: SK-MEL-2 melanoma
HS 578T breast = system: HS 578T breast
A498 renal = system: A498 renal
A549 NSCLC = system: A549 NSCLC
NCI-H23 lung = system: NCI-H23 lung
ACHN renal = system: ACHN renal
HL-60(TB) leukemia = system: HL-60(TB) leukemia
M14 melanoma = system: M14 melanoma
MDA-MB-435 = system: MDA-MB-435
MDA-N = system: MDA-N
SF-295 CNS = system: SF-295 CNS
OVCAR-8 ovarian = system: OVCAR-8 ovarian
RXF 393 renal = system: RXF 393 renal
SW-620 colon = system: SW-620 colon
OVCAR-4 ovarian = system: OVCAR-4 ovarian
UO-31 renal = system: UO-31 renal
HCT-15 colon = system: HCT-15 colon
SF-268 CNS = system: SF-268 CNS
HOP-92 NSCLC = system: HOP-92 NSCLC
LOX IMVI melanoma = system: LOX IMVI melanoma
UACC-257 melanoma = system: UACC-257 melanoma
PC-3 prostate = system: PC-3 prostate
OVCAR-5 ovarian = system: OVCAR-5 ovarian
HT29 colon = system: HT29 colon
U251 CNS = system: U251 CNS
SNB-19 CNS = system: SNB-19 CNS
OVCAR-3 ovarian = system: OVCAR-3 ovarian
786-0 renal = system: 786-0 renal
CCRF-CEM leukemia = system: CCRF-CEM leukemia
MOLT-4 leukemia = system: MOLT-4 leukemia
NCI-H460 lung = system: NCI-H460 lung
SR leukemia = system: SR leukemia
NCI/ADR-RES ovarian = system: NCI/ADR-RES ovarian
KM12 colon = system: KM12 colon
CAKI-1 renal = system: CAKI-1 renal
SNB-75 CNS = system: SNB-75 CNS
EKVX NSCLC = system: EKVX NSCLC
SK-MEL-28 melanoma = system: SK-MEL-28 melanoma
MCF7 breast = system: MCF7 breast
NCI-H522 lung = system: NCI-H522 lung
NCI-H226 lung = system: NCI-H226 lung
COLO 205 colon = system: COLO 205 colon
SK-MEL-5 melanoma = system: SK-MEL-5 melanoma
SN12C renal = system: SN12C renal
UACC-62 melanoma = system: UACC-62 melanoma
SF-539 CNS = system: SF-539 CNS
K-562 leukemia = system: K-562 leukemia
DU-145 prostate = system: DU-145 prostate
HCT-116 colon = system: HCT-116 colon
HCC-2998 colon = system: HCC-2998 colon
MALME-3M melanoma = system: MALME-3M melanoma
BT-549 breast = system: BT-549 breast
HOP-62 NSCLC = system: HOP-62 NSCLC
SK-OV-3 ovarian = system: SK-OV-3 ovarian
T-47D breast = system: T-47D breast

## CC(=O)OC1[C@H](n2ccnc2)C[C@H]2[C@@H]3CC=C4CC(N5CCCC5)CC[C@]4(C)[C@H]3CC[C@]12C (stereo partly drawn)
RPMI-8226 leukemia
  TGI: > 100 µM
MDA-MB-231 breast
  TGI: > 100 µM
TK-10 renal
  TGI: > 100 µM
IGROV1 ovarian
  TGI: > 100 µM
SK-MEL-2 melanoma
  TGI: 54.7 µM
HS 578T breast
  TGI: > 100 µM
A498 renal
  TGI: > 100 µM
A549 NSCLC
  TGI: > 100 µM
NCI-H23 lung
  TGI: > 100 µM
ACHN renal
  TGI: > 100 µM
HL-60(TB) leukemia
  TGI: 81.3 µM
M14 melanoma
  TGI: 61.6 µM
MDA-MB-435
  TGI: > 100 µM
MDA-N
  TGI: > 100 µM
SF-295 CNS
  TGI: 41 µM
OVCAR-8 ovarian
  TGI: > 100 µM
RXF 393 renal
  TGI: 43.7 µM
SW-620 colon
  TGI: > 100 µM
OVCAR-4 ovarian
  TGI: > 100 µM
UO-31 renal
  TGI: > 100 µM
HCT-15 colon
  TGI: > 100 µM
SF-268 CNS
  TGI: > 100 µM
HOP-92 NSCLC
  TGI: > 100 µM
LOX IMVI melanoma
  TGI: 38.1 µM
UACC-257 melanoma
  TGI: 55.3 µM
PC-3 prostate
  TGI: > 100 µM
OVCAR-5 ovarian
  TGI: > 100 µM
HT29 colon
  TGI: > 100 µM
U251 CNS
  TGI: > 100 µM
SNB-19 CNS
  TGI: > 100 µM
OVCAR-3 ovarian
  TGI: > 100 µM
786-0 renal
  TGI: > 100 µM
CCRF-CEM leukemia
  TGI: > 100 µM
MOLT-4 leukemia
  TGI: 48.8 µM
NCI-H460 lung
  TGI: > 100 µM
SR leukemia
  TGI: 35.2 µM
NCI/ADR-RES ovarian
  TGI: > 100 µM
KM12 colon
  TGI: > 100 µM
CAKI-1 renal
  TGI: > 100 µM
SNB-75 CNS
  TGI: > 100 µM
EKVX NSCLC
  TGI: > 100 µM
SK-MEL-28 melanoma
  TGI: 60.4 µM
MCF7 breast
  TGI: > 100 µM
NCI-H522 lung
  TGI: > 100 µM
NCI-H226 lung
  TGI: > 100 µM
COLO 205 colon
  TGI: > 100 µM
SK-MEL-5 melanoma
  TGI: > 100 µM
SN12C renal
  TGI: > 100 µM
UACC-62 melanoma
  TGI: 82.3 µM
SF-539 CNS
  TGI: 36.8 µM
K-562 leukemia
  TGI: > 100 µM
DU-145 prostate
  TGI: > 100 µM
HCT-116 colon
  TGI: > 100 µM

## COc1cc(C(=O)OCCn2[nH]c(-c3ccc(Cl)cc3)nc2=S)cc(OC)c1OC
MDA-MB-231 breast
  TGI: > 100 µM
HCC-2998 colon
  TGI: > 100 µM
TK-10 renal
  TGI: > 100 µM
SK-MEL-2 melanoma
  TGI: > 100 µM
HS 578T breast
  TGI: > 100 µM
A498 renal
  TGI: > 100 µM
A549 NSCLC
  TGI: > 100 µM
NCI-H23 lung
  TGI: > 100 µM
ACHN renal
  TGI: > 100 µM
HL-60(TB) leukemia
  TGI: > 100 µM
M14 melanoma
  TGI: > 100 µM
MDA-MB-435
  TGI: > 100 µM
MDA-N
  TGI: > 100 µM
SF-295 CNS
  TGI: > 100 µM
OVCAR-8 ovarian
  TGI: > 100 µM
RXF 393 renal
  TGI: > 100 µM
SW-620 colon
  TGI: > 100 µM
OVCAR-4 ovarian
  TGI: > 100 µM
UO-31 renal
  TGI: 24.2 µM
HCT-15 colon
  TGI: > 100 µM
SF-268 CNS
  TGI: > 100 µM
HOP-92 NSCLC
  TGI: 95.2 µM
LOX IMVI melanoma
  TGI: > 100 µM
UACC-257 melanoma
  TGI: > 100 µM
PC-3 prostate
  TGI: > 100 µM
OVCAR-5 ovarian
  TGI: > 100 µM
HT29 colon
  TGI: > 100 µM
U251 CNS
  TGI: > 100 µM
SNB-19 CNS
  TGI: > 100 µM
OVCAR-3 ovarian
  TGI: > 100 µM
786-0 renal
  TGI: > 100 µM
CCRF-CEM leukemia
  TGI: > 100 µM
MOLT-4 leukemia
  TGI: > 100 µM
NCI-H460 lung
  TGI: > 100 µM
SR leukemia
  TGI: > 100 µM
NCI/ADR-RES ovarian
  TGI: > 100 µM
KM12 colon
  TGI: > 100 µM
CAKI-1 renal
  TGI: > 100 µM
EKVX NSCLC
  TGI: > 100 µM
MALME-3M melanoma
  TGI: > 100 µM
SK-MEL-28 melanoma
  TGI: > 100 µM
MCF7 breast
  TGI: > 100 µM
NCI-H522 lung
  TGI: > 100 µM
NCI-H226 lung
  TGI: > 100 µM
COLO 205 colon
  TGI: > 100 µM
SK-MEL-5 melanoma
  TGI: > 100 µM
SN12C renal
  TGI: > 100 µM
UACC-62 melanoma
  TGI: > 100 µM
BT-549 breast
  TGI: > 100 µM
SF-539 CNS
  TGI: > 100 µM
K-562 leukemia
  TGI: > 100 µM
HOP-62 NSCLC
  TGI: > 100 µM
DU-145 prostate
  TGI: > 100 µM
SK-OV-3 ovarian
  TGI: > 100 µM
HCT-116 colon
  TGI: > 100 µM

## O=[p+]1c2ccccc2[nH]c2ccccc21
MDA-MB-231 breast
  TGI: > 100 µM
HCC-2998 colon
  TGI: > 100 µM
TK-10 renal
  TGI: > 100 µM
IGROV1 ovarian
  TGI: > 100 µM
SK-MEL-2 melanoma
  TGI: > 100 µM
A498 renal
  TGI: > 100 µM
A549 NSCLC
  TGI: > 100 µM
NCI-H23 lung
  TGI: > 100 µM
ACHN renal
  TGI: > 100 µM
HL-60(TB) leukemia
  TGI: > 100 µM
M14 melanoma
  TGI: > 100 µM
MDA-MB-435
  TGI: > 100 µM
MDA-N
  TGI: > 100 µM
SF-295 CNS
  TGI: > 100 µM
OVCAR-8 ovarian
  TGI: > 100 µM
RXF 393 renal
  TGI: > 100 µM
SW-620 colon
  TGI: > 100 µM
OVCAR-4 ovarian
  TGI: > 100 µM
HCT-15 colon
  TGI: > 100 µM
SF-268 CNS
  TGI: > 100 µM
HOP-92 NSCLC
  TGI: > 100 µM
LOX IMVI melanoma
  TGI: > 100 µM
UACC-257 melanoma
  TGI: > 100 µM
PC-3 prostate
  TGI: > 100 µM
OVCAR-5 ovarian
  TGI: > 100 µM
HT29 colon
  TGI: > 100 µM
U251 CNS
  TGI: > 100 µM
SNB-19 CNS
  TGI: > 100 µM
OVCAR-3 ovarian
  TGI: > 100 µM
786-0 renal
  TGI: > 100 µM
CCRF-CEM leukemia
  TGI: > 100 µM
MOLT-4 leukemia
  TGI: > 100 µM
NCI-H460 lung
  TGI: > 100 µM
SR leukemia
  TGI: > 100 µM
NCI/ADR-RES ovarian
  TGI: > 100 µM
KM12 colon
  TGI: > 100 µM
CAKI-1 renal
  TGI: > 100 µM
SNB-75 CNS
  TGI: > 100 µM
T-47D breast
  TGI: > 100 µM
EKVX NSCLC
  TGI: > 100 µM
MALME-3M melanoma
  TGI: > 100 µM
SK-MEL-28 melanoma
  TGI: > 100 µM
MCF7 breast
  TGI: > 100 µM
NCI-H522 lung
  TGI: > 100 µM
NCI-H226 lung
  TGI: > 100 µM
COLO 205 colon
  TGI: > 100 µM
SK-MEL-5 melanoma
  TGI: > 100 µM
SN12C renal
  TGI: > 100 µM
UACC-62 melanoma
  TGI: > 100 µM
SF-539 CNS
  TGI: > 100 µM
K-562 leukemia
  TGI: > 100 µM
HOP-62 NSCLC
  TGI: > 100 µM
DU-145 prostate
  TGI: > 100 µM
SK-OV-3 ovarian
  TGI: > 100 µM
HCT-116 colon
  TGI: > 100 µM
